Data from the supplement of paper PMC10307832.

Assays:
Assay in all cases: relative viability (nuclei count vs DMSO), 5 days (fraction); higher = more cells survive
Bosutinib + Lapatinib = compound: COc1cc(Nc2c(C#N)cnc3cc(OCCCN4CCN(C)CC4)c(OC)cc23)c(Cl)cc1Cl [Bosutinib] + CS(=O)(=O)CCNCc1ccc(-c2ccc3ncnc(Nc4ccc(OCc5cccc(F)c5)c(Cl)c4)c3c2)o1 [Lapatinib] (partner 2 µM)
Method in brief: (§1)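 Lung cancer cell lines were seeded in 1536-well plates and dosed by pin tool the next day, with either a single drug or a fixed anchor-drug dose combined with five library-drug doses (not always all listed) spaced in √10 steps. Five days later, one step fixed the cells and stained their nuclei (final 0.05% Triton X-100, 1% formaldehyde, 1 ug/ml Hoechst), and nuclei were counted on 4× images. Relative viability is the nuclei count in treated wells divided by the count in vehicle wells, and each value is the median of duplicate plates.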

Bosutinib + AZD7762 = compound: COc1cc(Nc2c(C#N)cnc3cc(OCCCN4CCN(C)CC4)c(OC)cc23)c(Cl)cc1Cl [Bosutinib] + NC(=O)Nc1cc(-c2cccc(F)c2)sc1C(=O)N[C@H]1CCCNC1 [AZD7762] (partner 0.2 µM)
Method in brief: as §1

Bosutinib + Alpelisib = compound: COc1cc(Nc2c(C#N)cnc3cc(OCCCN4CCN(C)CC4)c(OC)cc23)c(Cl)cc1Cl [Bosutinib] + Cc1nc(NC(=O)N2CCC[C@H]2C(N)=O)sc1-c1ccnc(C(C)(C)C(F)(F)F)c1 [Alpelisib] (partner 2 µM)
Method in brief: as §1

Bosutinib + Dasatinib = compound: COc1cc(Nc2c(C#N)cnc3cc(OCCCN4CCN(C)CC4)c(OC)cc23)c(Cl)cc1Cl [Bosutinib] + Cc1nc(Nc2ncc(C(=O)Nc3c(C)cccc3Cl)s2)cc(N2CCN(CCO)CC2)n1 [Dasatinib] (partner 0.075 µM)
Method in brief: as §1

Bosutinib + Phenformin = compound: COc1cc(Nc2c(C#N)cnc3cc(OCCCN4CCN(C)CC4)c(OC)cc23)c(Cl)cc1Cl [Bosutinib] + N=C(N)NC(=N)NCCc1ccccc1 [Phenformin] (partner 250 µM)
Method in brief: as §1

| Cell Line | relative viability (Bosutinib + Lapatinib; first compound 0.01 µM) | relative viability (Bosutinib + Lapatinib; first compound 0.03162 µM) | relative viability (Bosutinib + Lapatinib; first compound 0.1 µM) | relative viability (Bosutinib + Lapatinib; first compound 1 µM) | relative viability (Bosutinib + AZD7762; first compound 0.01 µM) | relative viability (Bosutinib + AZD7762; first compound 0.03162 µM) | relative viability (Bosutinib + AZD7762; first compound 0.1 µM) | relative viability (Bosutinib + AZD7762; first compound 1 µM) | relative viability (Bosutinib + Alpelisib; first compound 0.01 µM) | relative viability (Bosutinib + Alpelisib; first compound 0.03162 µM) | relative viability (Bosutinib + Alpelisib; first compound 0.1 µM) | relative viability (Bosutinib + Alpelisib; first compound 1 µM) | relative viability (Bosutinib + Dasatinib; first compound 0.01 µM) | relative viability (Bosutinib + Dasatinib; first compound 0.03162 µM) | relative viability (Bosutinib + Dasatinib; first compound 0.1 µM) | relative viability (Bosutinib + Dasatinib; first compound 1 µM) | relative viability (Bosutinib + Phenformin; first compound 0.01 µM) | relative viability (Bosutinib + Phenformin; first compound 0.03162 µM) | relative viability (Bosutinib + Phenformin; first compound 0.1 µM) | relative viability (Bosutinib + Phenformin; first compound 1 µM) |
| --- | --- | --- | --- | --- | --- | --- | --- | --- | --- | --- | --- | --- | --- | --- | --- | --- | --- | --- | --- | --- |
| HCC-366 | 1.16 | 0.942 | 0.939 | 0.884 | 0.34 | 0.253 | 0.205 | 0.073 | 0.532 | 0.416 | 0.305 | 0.111 | 0.755 | 0.627 | 0.692 | 0.66 | 0.63 | 0.61 | 0.555 | 0.53 |
| HCC-827 | 0.167 | 0.25 | 0.19 | 0.169 | 0.219 | 0.21 | 0.189 | 0.168 | 0.972 | 0.971 | 1.03 | 0.576 | 0.287 | 0.279 | 0.307 | 0.178 | 0.427 | 0.407 | 0.366 | 0.19 |
| HOP-62 | 0.977 | 1.12 | 1.08 | 1.01 | 0.497 | 0.619 | 0.721 | 0.4 | 0.977 | 1 | 1.1 | 0.889 | 0.692 | 0.639 | 0.671 | 0.688 | 0.699 | 0.706 | 0.65 | 0.741 |
| LC-2-ad | 0.99 | 0.92 | 1.05 | 1.01 | 0.88 | 0.818 | 0.846 | 0.755 | 0.883 | 0.975 | 0.92 | 0.864 | 0.678 | 0.701 | 0.659 | 0.906 | 0.659 | 0.549 | 0.577 | 0.694 |
| LCLC-97TM1 | 1.43 | 1.29 | 1.24 | 1.14 | 0.31 | 0.286 | 0.315 | 0.191 | 0.232 | 0.244 | 0.371 | 0.344 | 0.849 | 0.869 | 0.851 | 0.685 | 0.452 | 0.434 | 0.541 | 0.411 |
| LK-2 | 0.848 | 1.12 | 0.944 | 0.803 | 0.387 | 0.417 | 0.461 | 0.2 | 1.11 | 1.08 | 1.05 | 0.761 | 0.288 | 0.287 | 0.264 | 0.296 | 0.711 | 0.552 | 0.382 | 0.348 |
